Results reported in US7531545B2, “2-amino-3,4-dihydro-pyrido[3,4-d]pyrimidine derivatives useful as inhibitors of β-secretase (BACE)” (Janssen Pharmaceutica, N.V., priority 2005, dated 2009).

Experiments:
β-secretase (BACE) = target: T1, β-secretase (BACE) (Homo sapiens, UniProt P56817); experiment: BACE FS1 Assay (% Inhibition and Ki); format: biochemical; settings: FS1 substrate; for inhibition at 0.3 µM: 0.3 μM test compound, read-out: % Inhibition (FS) @ 0.3 μM; for inhibition at 1 µM: 1 μM test compound, read-out: % Inhibition (FS) @ 1 μM; for inhibition at 3 µM: 3 μM test compound, read-out: % Inhibition (FS) @ 3 μM
T1 construct: purchased Panvera
Protocol: BACE FS1 Assay (% Inhibition and Ki)
The following reagents were used in this assay: sodium acetate, PEG8000 (Sigma), DMSO, HEPES, FS1 substrate [R(AedensE)[…]-(DabcylK)R], β-secretase (BACE) (Panvera), and 96-well plate (HE microplate, Molecular Devices).
The following assay buffers were prepared and used in this assay: (1) enzyme assay buffer (0.05 M sodium acetate, pH5, 0.1% PEG8000 (w/v)), (2) substrate assay buffer (0.05 M sodium acetate, pH5), and (3) compound vehicle (30% DMSO in 50 mM HEPES, pH 7.4).
The FS1-substrate stock solution was prepared in DMSO as a 10 mg/mL solution. The FS1-substrate working solution was prepared by diluting the 10 mg/mL stock solution with substrate assay buffer to a final concentration of 300 μg/mL. The β-secretase (BACE) working solution was prepared by diluting a 0.83 mg/mL BACE stock solution with enzyme assay buffer to a final concentration of 4 μg/mL.
Test compounds were dissolved in DMSO to 10 mM. Compounds were further diluted in vehicle to various concentrations in the range of 405 μM to 4.05 μM (13.5× final compound concentration in screening plate).
The screening procedure for this assay was as follows: 15 μL of BACE working solution was pipetted into each well of a 96-well plate. To each well was then pipetted 2 μL of test compound at the selected concentration. Test compound and BACE were then mixed with a pipettor and incubated for 20 min at room temperature. To each well was then added 10 μL of the FS1 substrate working solution. The plates were then incubated for 1 hour at room temperature. The fluorescence for each well was then measured on an LJL analyst (Ex 360 nm/Em 530 nm).
The procedure for the blank was as follows. 15 μL of assay buffer was pipetted into each well to be used as a blank control. To each well was then added 2 μL of vehicle and […] of FS1-substrate working solution. The plates were then incubated for 1 hour at room temperature. The fluorescence was measured on an LJL analyst (Ex 360 nm/Em 530 nm).
The procedure for the positive control was as follows: 15 μL of BACE working solution was pipetted into each well to be used as a positive control. To each well was then pipetted 2 μL of vehicle. Vehicle and BACE were then mixed with a pipettor and incubated for 20 min at room temperature. To each well was then added 10 μL of the FS1 substrate working solution. The plates were then incubated for 1 hour at room temperature. The fluorescence (F1) was then measured on an LJL analyst (Ex 360 nm/Em 530 nm).
For test compounds, % inhibition was determined at each concentration as follows:
% Inhibition values of less than 30% were indistinguishable from control are listed as ≦30% in Table 18, below.
For test compounds, measured at multiple concentrations, the measured T0 and T60 values were used to calculate an IC50 value using Graphpad Software (or PIR). Ki inhibition was determined as follows: For each compound concentration and positive control, rate of cleavage of substrate (Vi, where i=compound concentration in μM) was determined as Δ Fluorescence/Δ time (min). Cleavage rates (Vi) were plotted as a function of inhibitor concentration in μM [I]. […]

human BACE-1 = human BACE-1 (Homo sapiens, UniProt P56817); experiment: CEREP BACE Inhibition Assay; format: biochemical; settings: recombinant enzyme; for inhibition at 1 µM / inhibition at 0.3 µM: percent inhibition of the control activity; for inhibition at 1 µM: read-out: % Inhibition @ 1.0 μM; for IC50: read-out: IC50
How it was run: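 Recombinant human BACE-1 (0.25 μg) was assayed in 0.09 M sodium acetate pH 4.5, with activity followed fluorimetrically as formation of Mca-S-E-V-N-L[…] from peptide substrate. Compound autofluorescence was checked at the detection wavelengths. Basal signal was taken from wells without substrate.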

human BACE-1, sequence (P56817 46-501): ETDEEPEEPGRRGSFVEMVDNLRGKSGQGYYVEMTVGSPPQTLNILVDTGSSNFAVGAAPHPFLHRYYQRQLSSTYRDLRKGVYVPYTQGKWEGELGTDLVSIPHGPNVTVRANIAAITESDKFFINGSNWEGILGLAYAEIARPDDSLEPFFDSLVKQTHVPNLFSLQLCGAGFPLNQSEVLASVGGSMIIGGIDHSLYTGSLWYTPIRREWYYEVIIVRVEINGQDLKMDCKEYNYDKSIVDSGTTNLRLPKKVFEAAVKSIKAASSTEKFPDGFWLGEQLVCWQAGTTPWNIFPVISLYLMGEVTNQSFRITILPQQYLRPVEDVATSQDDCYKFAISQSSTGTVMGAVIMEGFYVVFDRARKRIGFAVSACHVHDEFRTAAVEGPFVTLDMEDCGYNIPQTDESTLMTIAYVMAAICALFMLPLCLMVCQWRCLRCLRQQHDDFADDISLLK
T1 sequence (P56817 46-501): as above

Row | SMILES | inhibition at 0.3 µM (β-secretase (BACE)) [%] | inhibition at 1 µM (β-secretase (BACE)) [%] | inhibition at 3 µM (β-secretase (BACE)) [%] | Ki (β-secretase (BACE)) [nM] | inhibition at 1 µM (human BACE-1) [%] | IC50 (human BACE-1) [nM] | inhibition at 0.3 µM (human BACE-1) [%]
1 | CCOC(=O)C1CCC(N(C)C(=O)CCC(C2CCOCC2)N2Cc3cc(Oc4ccccc4)ncc3N=C2N)CC1 (stereo not drawn) [Compound 27] | 16 | 96 | 110 | 193 | – | – | –
2 | CCOC(=O)CCN(C)C(=O)CC[C@@H](C(C)C)N1Cc2cc(Oc3ccccc3)ncc2N=C1N [Compound 15] | 68 | 94 | 110 | 129 | – | – | –
3 | CC(C)[C@H](CCC(=O)N[C@@H](COCc1ccccc1)C(=O)O)N1Cc2cc(Oc3ccccc3)ncc2N=C1N [Compound 47, 2-[4-(2-Amino-6-phenoxy-4H-pyrido[3,4-d]pyrimidin-3-yl)-5-methyl-(S)-hexanoylamino]-3-(S)-benzyloxy-propionic acid] | 109 | 109 | 115 | 72 | – | – | –
4 | CN(CCCCC(=O)O)C(=O)CC[C@@H](C1CCCCC1)N1Cc2cc(Oc3ccccc3)ncc2N=C1N [Compound 44] | 61 | 88 | 105 | 148 | – | – | –
5 | CC(C)C(CCC(=O)N(C)C1CCC(C#N)CC1)N1Cc2cc(Oc3ccccc3)ncc2N=C1N (stereo not drawn) [Compound 11] | 47 | 78 | 120 | 124 | – | – | –
6 | CC(C)OCCC(CCC(=O)N(C)C1CCCCC1)N1Cc2cc(Oc3ccccc3)ncc2N=C1N (stereo not drawn) [Compound 24] | 40 | 71 | 103 | 234 | – | – | –
7 | CC(C)C(CCC(=O)N(CCO)C1CCC(C#N)CC1)N1Cc2cc(Oc3ccccc3)ncc2N=C1N (stereo not drawn) [Compound 10] | 55 | 80 | 114 | 207 | – | – | –
8 | CC(C)(C)OC(=O)NCCN1Cc2cc(Oc3ccccc3)ncc2N=C1N [Compound 2] | 70 | 102 | 124 | 91 | – | – | –
9 | CCOC(=O)C1CCC(N(C)C(=O)CCC(C2CCCCC2)N2Cc3cc(Oc4ccccc4)ncc3N=C2N)CC1 (stereo not drawn) [Compound 17] | 4 | 61 | 86 | 222 | – | – | –
10 | CC(C)[C@H](CCC(=O)N(C)CCC(=O)O)N1Cc2cc(Oc3ccccc3)ncc2N=C1N [Compound 16] | 12 | 51 | 80 | 1090 | – | – | –
11 | CCC(CC)N(CCO)C(=O)CC[C@@H](C1CCCCC1)N1Cc2cc(Oc3ccccc3)ncc2N=C1N [Compound 50] | 68 | 100 | 112 | 58 | – | – | –
12 | Cn1ccnc1CN(C(=O)CC[C@@H](C1CCCCC1)N1Cc2cc(Oc3ccccc3)ncc2N=C1N)C1CCCCC1 [Compound 83] | – | – | – | – | 99 | 90 | –
13 | C[C@@H](CO)NC(=O)[C@@H](COC(C)(C)C)NC(=O)CC[C@@H](C1CCCCC1)N1Cc2cc(Oc3ccccc3)ncc2N=C1N [Compound 108] | – | – | – | – | – | 140 | 94
14 | CC(C)(C)CCN(CCNC(=O)OC(C)(C)C)C(=O)CC[C@@H](C1CCCCC1)N1Cc2cc(Oc3ccccc3)ncc2N=C1N [Compound 145] | – | – | – | – | 99 | 57 | –
15 | CC(C)(C)CCN(CCNS(N)(=O)=O)C(=O)CC[C@@H](C1CCCCC1)N1Cc2cc(Oc3ccccc3)ncc2N=C1N [Compound 147, 4-(2-Amino-6-phenoxy-4H-pyrido[3,4-d]pyrimidin-3-yl)-4-(S)-cyclohexyl-N-(3,3-dimethyl-butyl)-N-(2-sulfamido-ethyl)-butyramide] | – | – | – | – | 100 | 180 | –
16 | COC(=O)[C@@H](COC(C)(C)C)NC(=O)CC[C@@H](C(C)C)N1Cc2cc(Oc3ccccc3)ncc2N=C1N [Compound 87] | – | – | – | – | – | 96 | 84

Second part, the molecule after the results:

Row | inhibition at 0.3 µM (β-secretase (BACE)) [%] | inhibition at 1 µM (β-secretase (BACE)) [%] | inhibition at 3 µM (β-secretase (BACE)) [%] | Ki (β-secretase (BACE)) [nM] | inhibition at 1 µM (human BACE-1) [%] | IC50 (human BACE-1) [nM] | inhibition at 0.3 µM (human BACE-1) [%] | SMILES
17 | 129 | 125 | 125 | 8 | – | – | – | CC(C)[C@H](CCC(=O)N(CCO)C1CCCCC1)N1Cc2cc(Oc3ccccc3)ncc2N=C1N [Compound 31]
18 | 114 | 112 | 113 | 5 | – | – | – | CN(C(=O)CC[C@@H](C1CCOCC1)N1Cc2cc(Oc3ccccc3)ncc2N=C1N)[C@H]1CC[C@@H](C(=O)O)CC1 [Compound 33]
19 | 110 | 124 | 124 | 22 | – | – | – | CN(C(=O)CCC(C1CCOCC1)N1Cc2cc(Oc3ccccc3)ncc2N=C1N)C1CCC(C(=O)O)CC1 (stereo not drawn) [Compound 26]
20 | 97 | 102 | 104 | 13 | – | – | – | CC(C)C(CCC(=O)N(CCO)C1CCC(C(=O)O)CC1)N1Cc2cc(Oc3ccccc3)ncc2N=C1N (stereo not drawn) [Compound 20]
21 | 130 | 132 | 139 | 18 | – | – | – | COc1ccccc1-c1cc2c(cn1)N=C(N)N([C@@H](CCC(=O)N(C)C1CCCCC1)C1CCCCC1)C2 [Compound 3]
22 | 112 | 110 | 115 | 13 | – | – | – | NC1=Nc2cnc(Oc3ccccc3)cc2CN1[C@@H](CCC(=O)N(CCOCc1ccccc1)[C@H]1CC[C@@H](C(=O)O)CC1)C1CCOCC1 [Compound 39, 4-[[4-(2-Amino-6-phenoxy-4H-pyrido[3,4-d]pyrimidin-3-yl)-4-(S)-(tetrahydro-pyran-4-yl)-butyryl]-(2-benzyloxy-ethyl)-amino]-cyclohexanecarboxylic acid]
23 | 79 | 101 | 109 | 20 | – | – | – | COC(=O)[C@H]1CC[C@@H](N(C)C(=O)CC[C@@H](C2CCOCC2)N2Cc3cc(Oc4ccccc4)ncc3N=C2N)CC1 [Compound 32]
24 | 88 | 103 | 104 | 55 | – | – | – | CC(C)[C@H](CCC(=O)N(CCCO)C1CCCCC1)N1Cc2cc(Oc3ccccc3)ncc2N=C1N [Compound 19]
25 | 113 | 127 | 132 | 35 | – | – | – | CN(C(=O)CC[C@@H](C1CCCCC1)N1Cc2cc(-c3ccccc3F)ncc2N=C1N)C1CCCCC1 [Compound 4]
26 | 110 | 107 | 115 | 16 | – | – | – | CC(C)[C@H](CCC(=O)N(C)[C@H]1CC[C@@H](C(=O)O)CC1)N1Cc2cc(Oc3ccccc3)ncc2N=C1N [Compound 43]
27 | 112 | 111 | 114 | 12 | – | – | – | NC1=Nc2cnc(Oc3ccccc3)cc2CN1[C@@H](CCC(=O)N(CCO)[C@H]1CC[C@@H](C(=O)O)CC1)C1CCCCC1 [Compound 37]
28 | 112 | 110 | 115 | 9 | – | – | – | NC1=Nc2cnc(Oc3ccccc3)cc2CN1[C@@H](CCC(=O)N(CCO)[C@H]1CC[C@@H](C(=O)O)CC1)C1CCOCC1 [Compound 38, 4-[[4-(2-Amino-6-phenoxy-4H-pyrido[3,4-d]pyrimidin-3-yl)-4-(S)-(tetrahydro-pyran-4-yl)-butyryl]-(2-hydroxy-ethyl)-amino]-cyclohexanecarboxylic acid]
